Laboratory results published in patent US20250353833A1, “DPP9 BINDING COMPOUNDS” (UNIVERSITEIT ANTWERPEN, priority 2022, published 2025).
Structures can show the parent of a compound that is named as a salt. Where two headings read alike, the source gives them in different places.

Tests used:
DPP8 = DPP8 (Homo sapiens (Human), UniProt Q6V1X1); test: DPP8 enzyme inhibition, IC50 measurement (Ala-Pro-pNA release); type: biochemical
Protocol: (§1) IC50 measurements. […] The Magellan software was used to process the data, which was then fitted using a non-linear fit model in GraFit 7. […] As a blank, the assay buffer was used instead of the enzyme. Screening measurements were carried out in duplo and IC50 values were determined in triplo with at least eight different inhibitor concentrations as described by Van Goethem et al.

DPP9 = DPP9 (Homo sapiens (Human), UniProt Q86TI2); test: DPP9 enzyme inhibition, IC50 measurement (Ala-Pro-pNA release); type: biochemical; details: for SI DPP9/8 / SI DPP9/DPP8: selectivity index; for SI DPP9/8: DPP8 IC50 over DPP9 IC50
DPP9, sequence (Q86TI2 whole entry): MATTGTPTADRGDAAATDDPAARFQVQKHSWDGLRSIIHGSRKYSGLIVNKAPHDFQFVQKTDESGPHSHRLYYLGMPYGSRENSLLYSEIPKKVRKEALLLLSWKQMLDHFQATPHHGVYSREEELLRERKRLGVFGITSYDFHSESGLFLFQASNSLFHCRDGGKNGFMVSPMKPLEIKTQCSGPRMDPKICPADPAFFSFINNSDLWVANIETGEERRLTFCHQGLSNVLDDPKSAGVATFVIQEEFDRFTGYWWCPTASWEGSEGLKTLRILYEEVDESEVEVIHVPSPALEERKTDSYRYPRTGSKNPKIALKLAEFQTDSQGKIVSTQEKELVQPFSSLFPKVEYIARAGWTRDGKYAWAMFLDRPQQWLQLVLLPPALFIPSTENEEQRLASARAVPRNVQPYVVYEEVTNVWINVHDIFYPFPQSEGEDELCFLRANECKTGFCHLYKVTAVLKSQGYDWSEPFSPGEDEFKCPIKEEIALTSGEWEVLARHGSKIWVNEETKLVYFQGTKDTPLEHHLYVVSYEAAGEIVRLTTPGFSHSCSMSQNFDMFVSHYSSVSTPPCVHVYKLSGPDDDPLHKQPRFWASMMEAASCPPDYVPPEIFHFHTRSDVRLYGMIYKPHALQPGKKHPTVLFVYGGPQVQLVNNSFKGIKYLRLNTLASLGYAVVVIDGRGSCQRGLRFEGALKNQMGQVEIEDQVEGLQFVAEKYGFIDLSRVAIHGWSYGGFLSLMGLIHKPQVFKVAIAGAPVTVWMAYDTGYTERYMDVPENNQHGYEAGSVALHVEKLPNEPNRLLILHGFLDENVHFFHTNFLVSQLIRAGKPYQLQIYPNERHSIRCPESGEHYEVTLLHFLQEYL
Protocol: DPP4 was purified from human seminal plasma as described previously.^[3]
as §1

[1] = Table 3, mean ± SD (n = 3), read-out: DPP9 IC50 ± SD

DPP8, sequence (Q6V1X1 whole entry): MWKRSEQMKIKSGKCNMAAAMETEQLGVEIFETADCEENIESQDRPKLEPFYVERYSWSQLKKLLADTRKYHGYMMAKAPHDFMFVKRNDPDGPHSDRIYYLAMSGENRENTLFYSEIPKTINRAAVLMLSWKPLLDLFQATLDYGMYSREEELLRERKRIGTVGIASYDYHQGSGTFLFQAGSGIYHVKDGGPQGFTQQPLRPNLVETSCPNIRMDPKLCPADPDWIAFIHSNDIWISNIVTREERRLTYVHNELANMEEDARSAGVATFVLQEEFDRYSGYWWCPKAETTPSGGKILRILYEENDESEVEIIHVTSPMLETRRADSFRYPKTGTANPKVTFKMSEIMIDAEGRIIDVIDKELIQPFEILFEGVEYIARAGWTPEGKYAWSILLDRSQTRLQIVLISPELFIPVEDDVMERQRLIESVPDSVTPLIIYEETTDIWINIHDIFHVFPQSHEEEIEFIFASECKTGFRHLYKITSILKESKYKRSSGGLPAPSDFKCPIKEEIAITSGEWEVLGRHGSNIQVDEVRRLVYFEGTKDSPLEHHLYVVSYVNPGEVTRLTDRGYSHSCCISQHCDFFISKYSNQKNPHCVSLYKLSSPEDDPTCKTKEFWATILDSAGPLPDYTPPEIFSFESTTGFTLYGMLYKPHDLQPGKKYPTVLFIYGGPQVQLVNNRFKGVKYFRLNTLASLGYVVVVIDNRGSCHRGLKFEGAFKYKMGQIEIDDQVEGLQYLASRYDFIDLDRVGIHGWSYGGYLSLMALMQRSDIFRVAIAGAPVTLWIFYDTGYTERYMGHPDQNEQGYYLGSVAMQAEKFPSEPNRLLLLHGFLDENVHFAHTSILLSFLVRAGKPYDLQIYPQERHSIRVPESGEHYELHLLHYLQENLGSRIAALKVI

| SMILES | SI DPP9/DPP8 (DPP9; Table 4) | other results |
| --- | --- | --- |
| O=C(N[C@H]1CC[C@H](O)CC1)OC12CC3CC(CC(NCC(=O)N4Cc5ccccc5C4)(C3)C1)C2 [Compound 35, 3-((2-(isoindolin-2-yl)-2-oxoethyl)amino)adamantan-1-yl ((1r,4R)-4-hydroxycyclohexyl)carbamate] | – | IC50 (DPP8; Table 3, mean ± SD (n = 3), read-out: DPP8 IC50 ± SD): 399 ± 38.8 nM; IC50 (DPP9; [1]): 36.6 nM; SI DPP9/8 (DPP9; Table 3): 10.9 |
| N#C[C@@H]1[C@@H]2C[C@@H]2CN1C(=O)CNC12CC3CC(CC(O)(C3)C1)C2 [Compound 5l, (1R,2S,5S)-3-((3-hydroxyadamantan-1-yl)glycyl)-3-azabicyclo[3.1.0]hexane-2-carbonitrile] | – | DPP9/8 selectivity index (DPP9): > 10 |
| O=C(CCCCC1SCC2NC(=O)NC21)NCCOCCOCCOCCNC(=O)NC12CC3CC(CC(NCC(=O)N4Cc5cc(F)c(F)cc5C4)(C3)C1)C2 (stereo not drawn) [Compound 115, N-(1-((3-((2-(5,6-difluoroisoindolin-2-yl)-2-oxoethyl)amino)adamantan-1-yl)amino)-1-oxo-5,8,11-trioxa-2-azatridecan-13-yl)-5-(2-oxohexahydro-1H thieno[3,4-d]imidazol-4-yl)pentanamide] | 7 | – |
| Cc1ncsc1-c1ccc(CNC(=O)[C@@H]2C[C@@H](O)CN2C(=O)[C@@H](NC(=O)c2ccc(-c3ccc(C(=O)NC45CC6CC(CC(NCC(=O)N7Cc8ccc(F)cc8C7)(C6)C4)C5)cc3)cc2)C(C)(C)C)cc1 [Compound 123, N4-(3-((2-(5-fluoroisoindolin-2-yl)-2-oxoethyl)amino)adamantan-1-yl)-N4′-((S)-1-((2S,4R)-4-hydroxy-2-((4-(4-methylthiazol-5-yl)benzyl)carbamoyl)pyrrolidin-1-yl)-3,3-dimethyl-1-oxobutan-2-yl)-[1,1′-biphenyl]-4,4′-dicarboxamide] | 3 | – |
| Cl.O=C(NC12CC3CC(CC(NCC(=O)N4Cc5ccc(F)cc5C4)(C3)C1)C2)c1ccc(-c2ccc(F)cc2)cc1 [Compound 93, 4′-fluoro-N-((1s,3r,5R,7S)-3-((2-(5-fluoroisoindolin-2-yl)-2-oxoethyl)amino)adamantan-1-yl)-[1,1′-biphenyl]-4-carboxamide hydrochloride] | 59 | – |
| Cl.O=C(NC12CC3CC(CC(NCC(=O)N4Cc5ccc(F)cc5C4)(C3)C1)C2)c1ccc(-c2ccc(O)cc2)cc1 [Compound 105, N-(-3-((2-(5-fluoroisoindolin-2-yl)-2-oxoethyl)amino)adamantan-1-yl)-4′-hydroxy-[1,1′-biphenyl]-4-carboxamide hydrochloride] | 27 | – |
| CCCCNC12CC3CC(C1)CC(NCC(=O)N1Cc4ccccc4C1)(C3)C2 [Compound 25, 2-((3-(butylamino)adamantan-1-yl)amino)-1-(isoindolin-2-yl)ethan-1-one 2,2,2-trifluoroacetate] | – | IC50 (DPP9; [1]): 477 ± 28 nM; SI DPP9/8 (DPP9; Table 3): >21 |
| Cc1ncsc1-c1ccc(CNC(=O)[C@@H]2C[C@@H](O)CN2C(=O)[C@@H](NC(=O)c2csc(-c3ccc(C(=O)NC45CC6CC(CC(NCC(=O)N7Cc8ccc(F)cc8C7)(C6)C4)C5)cc3)c2)C(C)(C)C)cc1 [Compound 122, (2S,4R)-1-((2S)-2-(5-(4-((3-((2-(5-fluoroisoindolin-2-yl)-2-oxoethyl)amino)adamantan-1-yl)carbamoyl)phenyl)thiophene-3-carboxamido)-3,3-dimethylbutanoyl)-4-hydroxy-N-(4-(4-methylthiazol-5-yl)benzyl)pyrrolidine-2-carboxamide] | 11 | – |
| CC[N+]1=C(/C=C/C=C2/N(CCCCCC(=O)NC34CC5CC(CC(NCC(=O)N6Cc7ccc(F)cc7C6)(C5)C3)C4)c3ccc(S(=O)(=O)O)cc3C2(C)C)C(C)(C)c2cc(S(=O)(=O)[O-])ccc21 [Compound 120, 1-ethyl-2-((E)-3-((E)-1-(6-((-3-((2-(5-fluoroisoindolin-2-yl)-2-oxoethyl)amino)adamantan-1-yl)amino)-6-oxohexyl)-3,3-dimethyl-5-sulfoindolin-2-ylidene)prop-1-en-1-yl)-3,3-dimethyl-3H-indol-1-ium-5-sulfonate] | 21 | – |
| Cc1ncsc1-c1ccc(CNC(=O)[C@@H]2C[C@@H](O)CN2C(=O)[C@@H](NC(=O)CCOCCOc2ccc(-c3ccc(C(=O)NC45CC6CC(CC(NCC(=O)N7Cc8ccc(F)cc8C7)(C6)C4)C5)cc3)cc2)C(C)(C)C)cc1 [Compound 125, (2S,4R)-1-((2S)-2-(3-(2-((4′-((3-((2-(5-fluoroisoindolin-2-yl)-2-oxoethyl)amino)adamantan-1-yl)carbamoyl)-[1,1′-biphenyl]-4-yl)oxy)ethoxy)propanamido)-3,3-dimethylbutanoyl)-4-hydroxy-N-(4-(4-methylthiazol-5-yl)benzyl)pyrrolidine-2-carboxamide] | 9 | – |
| Cl.O=C(NC12CC3CC(CC(NCC(=O)N4Cc5ccc(F)cc5C4)(C3)C1)C2)c1ccc(-c2cccs2)cc1 [Compound 92, N-((1s,3r,5R,7S)-3-((2-(5-fluoroisoindolin-2-yl)-2-oxoethyl)amino)adamantan-1-yl)-4-(thiophen-2-yl)benzamide hydrochloride] | 27 | – |
| COC(=O)c1csc(-c2ccc(C(=O)NC34CC5CC(CC(NCC(=O)N6Cc7ccc(F)cc7C6)(C5)C3)C4)cc2)c1.Cl [Compound 103, Methyl 5-(4-((-3-((2-(5-fluoroisoindolin-2-yl)-2-oxoethyl)amino)adamantan-1-yl)carbamoyl)phenyl)thiophene-3-carboxylate hydrochloride] | 25 | – |
| COC(=O)c1ccc(-c2ccc(C(=O)NC34CC5CC(CC(NCC(=O)N6Cc7ccc(F)cc7C6)(C5)C3)C4)cc2)cc1 [Compound 104, Methyl 4′-((-3-((2-(5-fluoroisoindolin-2-yl)-2-oxoethyl)amino)adamantan-1-yl)carbamoyl)-[1,1′-biphenyl]-4-carboxylate hydrochloride] | 46 | IC50 (DPP9; read-out: IC50 DPP9): 1 nM |
| Cl.O=C(CNC12CC3CC(C1)CC(NS(=O)(=O)c1ccc(-c4ccccc4)cc1)(C3)C2)N1Cc2ccc(F)cc2C1 [Compound 102, N-((1s,3r,5R,7S)-3-((2-(5-fluoroisoindolin-2-yl)-2-oxoethyl)amino)adamantan-1-yl)-[1,1′-biphenyl]-4-sulfonamide hydrochloride] | 4 | – |
| O=C(CNC12CC3CC(C1)CC(Nc1ccc(-c4ccccc4)nc1)(C3)C2)N1Cc2ccc(F)cc2C1 [Compound 109, 1-(5-fluoroisoindolin-2-yl)-2-((-3-((6-phenylpyridin-3-yl)amino)adamantan-1-yl)amino)ethan-1-one dihydrochloride] | 2 | – |

Now from value to molecule, other results behind:

| SI DPP9/DPP8 (DPP9; Table 4) | SMILES | other results |
| --- | --- | --- |
| 54 | Cl.O=C(NC12CC3CC(CC(NCC(=O)N4Cc5ccc(F)cc5C4)(C3)C1)C2)c1ccc(-c2ccccc2)cc1 [Compound 87, N-((1s,3r,5R,7S)-3-((2-(5-fluoroisoindolin-2-yl)-2-oxoethyl)amino)adamantan-1-yl)-[1,1′-biphenyl]-4-carboxamide hydrochloride] | – |
| 23 | Cc1ccc2c(c1)CN(C(=O)CNC13CC4CC(C1)CC(NC(=O)OC(C)(C)C)(C4)C3)C2 [Compound 84, tert-butyl ((1s,3r,5R,7S)-3-((2-(5-methylisoindolin-2-yl)-2-oxoethyl)amino)adamantan-1-yl)carbamate] | IC50 (DPP8; Table 4, standard method, read-out: IC50 DPP8): 4710 ± 444 nM; IC50 (DPP9; Table 4, standard method, read-out: IC50 DPP9): 208 ± 48 nM |
| 26 | Cl.O=C(NC12CC3CC(CC(NCC(=O)N4Cc5ccc(F)cc5C4)(C3)C1)C2)c1ccc(-c2ccccc2F)cc1 [Compound 94, 2′-fluoro-N-((1s,3r,5R,7S)-3-((2-(5-fluoroisoindolin-2-yl)-2-oxoethyl)amino)adamantan-1-yl)-[1,1′-biphenyl]-4-carboxamide hydrochloride] | – |
| 11 | Cl.O=C(NC12CC3CC(CC(NCC(=O)N4Cc5ccc(F)cc5C4)(C3)C1)C2)c1ccc(-c2ccccc2)s1 [Compound 97, N-((1s,3r,5R,7S)-3-((2-(5-fluoroisoindolin-2-yl)-2-oxoethyl)amino)adamantan-1-yl)-5-phenylthiophene-2-carboxamide hydrochloride] | – |
| 13 | Cl.O=C(NC12CC3CC(CC(NCC(=O)N4Cc5ccc(F)cc5C4)(C3)C1)C2)c1cnc2ccccc2c1 [Compound 99, N-((1s,3r,5R,7S)-3-((2-(5-fluoroisoindolin-2-yl)-2-oxoethyl)amino)adamantan-1-yl)quinoline-3-carboxamide hydrochloride] | – |
| 4 | Cl.O=C(NC12CC3CC(CC(NCC(=O)N4Cc5ccc(F)cc5C4)(C3)C1)C2)c1cccc(-c2ccccc2)c1 [Compound 101, N-((1s,3r,5R,7S)-3-((2-(5-fluoroisoindolin-2-yl)-2-oxoethyl)amino)adamantan-1-yl)-[1,1′-biphenyl]-3-carboxamide hydrochloride] | – |
| 12 | Cl.N#Cc1ccc(C(=O)NC23CC4CC(CC(NCC(=O)N5Cc6ccc(F)cc6C5)(C4)C2)C3)cc1 [Compound 96, 4-cyano-N-((1s,3r,5R,7S)-3-((2-(5-fluoroisoindolin-2-yl)-2-oxoethyl)amino)adamantan-1-yl)benzamide hydrochloride] | – |
| 28 | Cl.O=C(NC12CC3CC(CC(NCC(=O)N4Cc5ccc(F)cc5C4)(C3)C1)C2)c1ccc(-c2ccccc2)nc1 [Compound 89, N-((1s,3r,5R,7S)-3-((2-(5-fluoroisoindolin-2-yl)-2-oxoethyl)amino)adamantan-1-yl)-6-phenylnicotinamide hydrochloride] | – |
| 22 | Cl.O=C(NC12CC3CC(CC(NCC(=O)N4Cc5ccc(F)cc5C4)(C3)C1)C2)c1ccc(-c2cccs2)nc1 [Compound 100, N-((1s,3r,5R,7S)-3-((2-(5-fluoroisoindolin-2-yl)-2-oxoethyl)amino)adamantan-1-yl)-6-(thiophen-2-yl)nicotinamide hydrochloride] | – |
